The values that follow come from patent US12568960B2, “Adjuvant combinations as foliar uptake accelerator for herbicidal compositions” (Bayer Aktiengesellschaft, priority 2019, dated 2026).

Series [1] has as its system cuticula of apple leaves. The series is described as follows: Membrane (cuticle) penetration test. Here is the method:
The properties of the adjuvant combinations according to the invention as penetration enhancers were measured in a membrane penetration test on the cuticula of apple leaves.
Determination of bioavailability of various herbicides, plant growth regulators (PGRs) and safeners by cuticle penetration test.
The leaf cuticles were isolated enzymatically as described in the literature. The stomata-free cuticles were first dried under air and introduced into stainless steel diffusion cells. After the application of the test liquids to the original top side of the leaf and evaporation of liquid, the diffusion cells were transferred into thermostat blocks and loaded with water. At regular intervals, aliquot samples were taken, and the amount of active ingredient diffused was determined by means of HPLC. […] Detection was effected with a DAD detector. The results given in each case are the geometric penetration averages at the average measurement times. According to the variance, 10 repeat measurements were conducted.
Typically, a spray solution of the active ingredient (0.5 g of active ingredient/l) was produced. An aliquot was applied to an apple cuticle and left to dry. The operation was repeated 10 times. The amount absorbed through the cuticles in the uptake solution is determined by HPLC as described above. The measurements were made after 0, 6, 12, 24, 36 or 48 h.

The nature of series [2]: Dynamic surface tension, bubble pressure method. The format is physicochemical. To be noted: 6 g/l. Here is the method:
Dynamic surface tension was determined via the bubble pressure method (BP2100 tensiometer, Krüss).

[3] abbreviates: Table 8, mefenpyr-diethyl SC formulation, no adjuvant.
The mark [4] stands for this setting: Table 9, mefenpyr-diethyl SC formulation, no adjuvant.
The mark [5] stands for this setting: Table 7, bixlozone standard SC formulation, no adjuvant.
The mark [6] stands for this setting: Table 19, bixlozone SC formulation, no adjuvant.
[7] abbreviates: Table 26, bixlozone EC formulation, no adjuvant.
Where [8] appears, read: Table 24, Compound 3 WP20 formulation, cuticle from 2016, no adjuvant.
Setting [9] is: Table 30, Compound 5 WP20 formulation, no adjuvant.
Where [10] appears, read: Table 31, Compound 6 WP20 formulation, no adjuvant.
The mark [11] stands for this setting: Table 20, prohexadione-Ca EC formulation, no adjuvant.
Where [12] appears, read: Table 12, Rinskor EC formulation, adjuvant 2 g/l.

For `CCOC(=O)C1=NN(c2ccc(Cl)cc2Cl)C(C)(C(=O)OCC)C1` (racemic) [Mefenpyr-diethyl, Diethyl (RS)-1-(2,4-dichlorophenyl)-4,5-dihydro-5-methyl-1H-pyrazole-3,5-dicarboxylate], in series [1] (setting [3]), the “Cuticle penetration 12 h in %” value is 4%, the “Cuticle penetration 24 h in %” value was 9% and the “Cuticle penetration 48 h in %” value is 16%. In series [1] (setting [4]), the “Cuticle penetration 24 h in %” value came out at 17% and the “Cuticle penetration 48 h in %” value is listed as 59%.
For the compound `CC1(C)CON(Cc2ccc(Cl)cc2Cl)C1=O` [Bixlozone, 2-(2,4-Dichlorobenzyl)-4,4-dimethylisoxazolidin-3-one], in series [1] (setting [5]), the “Cuticle penetration 6 h in %” value amounted to 21%, the “Cuticle penetration 12 h in %” value was determined as 42% and the “Cuticle penetration 24 h in %” value turned out to be 62%. Also, in series [1] (setting [6]), the “Cuticle penetration 24 h in %” value was 24% and the “Cuticle penetration 48 h in %” value worked out at 73%. For the same compound, in series [1] (setting [7]), the “Cuticle penetration 6 h in %” value worked out at 27%, the “Cuticle penetration 12 h in %” value was 29% and the “Cuticle penetration 24 h in %” value was found to be 31%.
Consider `NC(=O)c1ccc(C(F)(F)F)nc1O` [Compound 3], for which, in series [1] (setting [8]), the “Cuticle penetration 12 h in %” value is given as 0%, the “Cuticle penetration 24 h in %” value was 0% and the “Cuticle penetration 48 h in %” value was determined as 0%.
As to `Cc1ccc2c(c1)C(Nc1ncc(C(C)(C)O)cn1)[C@@H](C)C2` (stereo partly drawn) [Compound 5], in series [1] (setting [9]), the “Cuticle penetration 12 h in %” value is 6%, the “Cuticle penetration 24 h in %” value is 14% and the “Cuticle penetration 48 h in %” value stood at 52%.
For `Cc1ccc2c(c1)C(Nc1nc3n(n1)CCCCS3)CCC2` (stereo not drawn) [Compound 6], in series [1] (setting [10]), the “Cuticle penetration 12 h in %” value came out at 0%, the “Cuticle penetration 24 h in %” value is 0% and the “Cuticle penetration 48 h in %” value is 2%.
Take `CCC(=O)C1=C([O-])CC(C(=O)[O-])CC1=O.[Ca+2]` (stereo not drawn) [Prohexadione-Ca, Calcium 3-oxido-5-oxo-4-propionyl-cyclohex-3-enecarboxylate]: in series [1] (setting [11]), the “Cuticle penetration 24 h in %” value was 18% and the “Cuticle penetration 48 h in %” value is given as 44%.
As to `Cn1nc(C(F)(F)F)c(CS(=O)(=O)C2=NOC(C)(C)C2)c1OC(F)F` [Pyroxasulfone, 3-[5-(Difluoromethoxy)-1-methyl-3-(trifluoromethyl)pyrazol-4-ylmethylsulfonyl]-4,5-dihydro-5,5-dimethyl-1,2-oxazole], the “Cuticle penetration 24 h in %” value in series [1] (apple, 24 h, 0.5 g/l) was determined as 2%.
On to `CCCCOCCOP(=O)(OCCOCCCC)OCCOCCCC` [TBEP, Tributoxyethyl phosphate], for which the “Penetration enhancement (in words)” value in series [1] (bixlozone, summary of Table 7) was “shows distinctly lower uptake of bixlozone than TEHP”; in series [1] (tembotrione (Laudis SC), summary of Tables 5 and 6), “does not enhance the uptake of tembotrione”.
`CCCCC(CC)COP(=O)(OCC(CC)CCCC)OCC(CC)CCCC` (stereo not drawn) [TEHP, Tris(2-ethylhexyl) phosphate]: the “Penetration enhancement (in words)” value in series [1] (mefenpyr-diethyl, summary of Tables 8 and 9) is recorded as “has better penetration-enhancing properties compared to TBEP in the combination”. Moreover, in series [2], the “Dynamic surface tension 20 ms” value is reported as 71.7 mN/m, the “Dynamic surface tension 50 ms” value is 71.7 mN/m, the “Dynamic surface tension 200 ms” value is 71.6 mN/m and the “Dynamic surface tension 500 ms” value stood at 71.5 mN/m.
With `CS(=O)(=O)c1ccc(C(=O)C2C(=O)CCCC2=O)c(Cl)c1COCC(F)(F)F` [Tembotrione], in series [1] (apple, 6 h, 0.5 g/l), the “Cuticle penetration 6 h in %” value was determined as 0%. Besides, in series [1] (apple, 12 h, 0.5 g/l), the “Cuticle penetration 12 h in %” value was found to be 0%.
For the compound Ammonium sulfate [AMS], in series [1] (setting [12]), the “Cuticle penetration 24 h in %” value stood at 5% and the “Cuticle penetration 48 h in %” value is 15%.
